Results from ChEMBL document CHEMBL3779768, “Simple N(ε)-thioacetyl-lysine-containing cyclic peptides exhibiting highly potent sirtuin inhibition” (Bioorg Med Chem Lett, 2016).
*1 amine or outer side, *2 acyl side, *3 side chain or, on linkers, in order; H or OH if unused. Where a SMILES comes first, the peptide text is derived from it. Bridges are numbered along the chain shown (N, C = ends). [ ]: non-standard residue; d: D form. Suberoyl(Gly)2 = O=C(CCCCCCC(=O)NCC(=O)[*:2])NCC(=O)[*:1]; Lys(Thioacetyl) = CC(=S)NCCCC[C@H](N)C(=O)O; Suberoyl = O=C(CCCCCCC(=O)[*:2])[*:1]; Adipoyl = O=C(CCCCC(=O)[*:2])[*:1]; Suc = O=C(CCC(=O)[*:2])[*:1]

How the values were obtained:
[1] = biological target: T1, NAD-dependent protein deacetylase sirtuin-1 (Homo sapiens, UniProt Q96EB6); assay: Inhibition of recombinant GST-tagged human SIRT1 using 0.3 mM H2N-HK-[N(epsilon)-acetyl-lysine]-LM-COOH as substrate measured after 10 mins HPLC analysis in presence of 0.5 mM beta-NAD+
T1 sequence (Q96EB6 whole entry): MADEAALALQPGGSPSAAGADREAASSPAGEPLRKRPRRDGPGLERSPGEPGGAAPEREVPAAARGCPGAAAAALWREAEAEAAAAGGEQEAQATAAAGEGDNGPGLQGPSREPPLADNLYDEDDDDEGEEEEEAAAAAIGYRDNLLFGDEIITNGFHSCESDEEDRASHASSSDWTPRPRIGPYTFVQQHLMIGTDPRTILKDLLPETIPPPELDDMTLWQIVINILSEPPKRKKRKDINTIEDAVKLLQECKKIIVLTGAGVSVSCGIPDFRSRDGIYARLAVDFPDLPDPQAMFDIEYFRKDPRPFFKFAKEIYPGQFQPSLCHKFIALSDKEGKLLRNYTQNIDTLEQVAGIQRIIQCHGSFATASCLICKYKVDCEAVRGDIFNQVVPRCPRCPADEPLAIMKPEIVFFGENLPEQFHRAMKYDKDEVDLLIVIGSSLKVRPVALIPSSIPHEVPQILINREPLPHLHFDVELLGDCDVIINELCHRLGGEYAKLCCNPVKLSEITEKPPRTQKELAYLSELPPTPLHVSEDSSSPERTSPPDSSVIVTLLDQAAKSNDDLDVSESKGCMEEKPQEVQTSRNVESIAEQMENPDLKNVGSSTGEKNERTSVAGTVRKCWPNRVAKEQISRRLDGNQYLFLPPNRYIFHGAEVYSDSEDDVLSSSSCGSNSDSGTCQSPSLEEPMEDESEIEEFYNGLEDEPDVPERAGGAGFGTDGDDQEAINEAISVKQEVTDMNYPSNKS

[2] = biological target: T2, NAD-dependent protein deacetylase sirtuin-2 (Homo sapiens, UniProt Q8IXJ6); assay: Inhibition of recombinant His6 tagged human SIRT2 using 0.39 mM H2N-HK-[N(epsilon)-acetyl-lysine]-LM-COOH as substrate measured after 12 mins HPLC analysis in presence of 0.5 mM beta-NAD+
T2 sequence (Q8IXJ6 whole entry): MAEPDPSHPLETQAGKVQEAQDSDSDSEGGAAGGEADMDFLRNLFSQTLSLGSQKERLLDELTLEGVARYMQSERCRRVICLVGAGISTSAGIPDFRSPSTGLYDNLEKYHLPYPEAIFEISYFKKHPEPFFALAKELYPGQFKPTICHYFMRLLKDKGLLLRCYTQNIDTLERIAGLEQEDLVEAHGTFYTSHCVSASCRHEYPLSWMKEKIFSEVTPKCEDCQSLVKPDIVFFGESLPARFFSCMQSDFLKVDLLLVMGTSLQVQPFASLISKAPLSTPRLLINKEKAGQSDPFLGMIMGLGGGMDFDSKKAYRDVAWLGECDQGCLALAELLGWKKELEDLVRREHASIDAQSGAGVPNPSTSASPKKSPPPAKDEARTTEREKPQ

[3] = biological target: T3, NAD-dependent protein deacetylase sirtuin-3, mitochondrial (Homo sapiens, UniProt Q9NTG7); assay: Inhibition of human SIRT3 expressed in Escherichia coli BL21 (DE3) assessed as deacetylation using Z-Lys(Acetyl)-AMC as substrate measured after 4 hrs by fluorescence based microplate reader method in presence of 500 uM beta NAD+
T3 sequence (Q9NTG7 whole entry): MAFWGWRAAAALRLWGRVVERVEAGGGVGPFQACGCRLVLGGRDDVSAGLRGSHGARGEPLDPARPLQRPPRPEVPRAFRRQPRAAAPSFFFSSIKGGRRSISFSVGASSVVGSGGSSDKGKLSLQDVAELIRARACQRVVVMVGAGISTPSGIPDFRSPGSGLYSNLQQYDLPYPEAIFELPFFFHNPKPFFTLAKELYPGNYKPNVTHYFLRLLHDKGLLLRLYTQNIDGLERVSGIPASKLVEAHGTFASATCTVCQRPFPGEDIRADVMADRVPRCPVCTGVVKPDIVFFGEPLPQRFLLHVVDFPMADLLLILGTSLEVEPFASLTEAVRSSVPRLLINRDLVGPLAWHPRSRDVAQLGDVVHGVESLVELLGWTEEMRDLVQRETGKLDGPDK

[4] = biological target: T1, NAD-dependent protein deacetylase sirtuin-1; assay: Inhibition of human SIRT1 (133 to 747 amino acid residues) assessed as deacetylation using Z-Lys(Acetyl)-AMC as substrate measured after 4 hrs by fluorescence based microplate reader method in presence of 500 uM beta-NAD+
[5] = biological target: T3, NAD-dependent protein deacetylase sirtuin-3, mitochondrial; assay: Inhibition of recombinant His6 tagged human SIRT3 using 0.105 mM H2N-HK-[N(epsilon)-acetyl-lysine]-LM-COOH as substrate measured after 10 mins HPLC analysis in presence of 3.5 mM beta-NAD+
[6] = biological target: T1, NAD-dependent protein deacetylase sirtuin-1; assay: Inhibition of SIRT1 (unknown origin)
[7] = biological target: T2, NAD-dependent protein deacetylase sirtuin-2; assay: Inhibition of human SIRT2
[8] = biological target: T3, NAD-dependent protein deacetylase sirtuin-3, mitochondrial; assay: Inhibition of SIRT3 (unknown origin)

IC50 [1] | IC50 [2] | IC50 [5] | other results | Structure (SMILES)
37.1 nM | 404 nM |  |  | CSCC[C@H](NC(=O)[C@@H]1CCCCNC(=O)CCCCCCC(=O)NCCCC[C@H](NC(C)=O)C(=O)N[C@@H](CCCCN)C(=O)N[C@@H](CCCCNC(C)=S)C(=O)N1)C(N)=O (Ac-KK[Lys(Thioacetyl)]KM-NH2; linker 1-4 via Suberoyl)
 |  |  | IC50 [3]: > 140000 nM; IC50 [4]: > 140000 nM | Cc1cc(C)nc(SCC(=O)Nc2ncc(Cc3cccc4ccccc34)s2)n1
165 nM | 332 nM |  |  | CSCC[C@H](NC(=O)[C@H](CC(C)C)NC(=O)[C@H](CCCCNC(C)=S)NC(=O)[C@H](CCCCN)NC(=O)[C@H](Cc1c[nH]cn1)NC(C)=O)C(N)=O (Ac-HK[Lys(Thioacetyl)]LM-NH2)
75.2 nM | 10.1 nM |  |  | CSCC[C@H](NC(=O)[C@@H]1CCCCNC(=O)CCC(=O)NCCCC[C@H](NC(C)=O)C(=O)N[C@@H](CCCCN)C(=O)N[C@@H](CCCCNC(C)=S)C(=O)N1)C(N)=O (Ac-KK[Lys(Thioacetyl)]KM-NH2; linker 1-4 via Suc)
2.3 nM | 144 nM | 42.9 nM |  | CSCC[C@H](NC(=O)[C@@H]1CCCCNC(=O)CNC(=O)CCCCCCC(=O)NCC(=O)NCCCC[C@H](NC(C)=O)C(=O)N[C@@H](CCCCN)C(=O)N[C@@H](CCCCNC(C)=S)C(=O)N1)C(N)=O (Ac-KK[Lys(Thioacetyl)]KM-NH2; linker 1-4 via Suberoyl(Gly)2)
56.8 nM | 58.9 nM | 103 nM |  | CSCC[C@H](NC(=O)[C@@H]1CCCCNC(=O)CNC(=O)CCC(=O)NCC(=O)NCCCC[C@H](NC(C)=O)C(=O)N[C@@H](CCCCN)C(=O)N[C@@H](CCCCNC(C)=S)C(=O)N1)C(N)=O
63.5 nM | 134 nM |  |  | CSCC[C@H](NC(=O)[C@@H]1CCCCNC(=O)CCCCC(=O)NCCCC[C@H](NC(C)=O)C(=O)N[C@@H](CCCCN)C(=O)N[C@@H](CCCCNC(C)=S)C(=O)N1)C(N)=O (Ac-KK[Lys(Thioacetyl)]KM-NH2; linker 1-4 via Adipoyl)
 |  |  | IC50 [6]: 47 nM; IC50 [7]: 3.2 nM; IC50 [8]: 480 nM | CC[C@H](C)[C@@H]1NC(=O)[C@H](CCCNC(=N)N)NC(=O)[C@H](Cc2ccccc2)NC(=O)[C@H](CC(N)=O)NC(=O)[C@@H](CO)NC(=O)[C@H](Cc2ccc(O)cc2)NC(=O)CSC[C@@H](C(N)=O)NC(=O)[C@H](CO)NC(=O)[C@H](CO)NC(=O)[C@H](CC(N)=O)NC(=O)[C@H](CO)NC(=O)[C@H](Cc2ccc(O)cc2)NC(=O)[C@H](CCCNC(=N)N)NC(=O)[C@H](CCCCNC(=O)C(F)(F)F)NC1=O
38.7 nM | 53.1 nM | 52.5 nM |  | CSCC[C@H](NC(=O)[C@@H]1CCCCNC(=O)CNC(=O)CCCCC(=O)NCC(=O)NCCCC[C@H](NC(C)=O)C(=O)N[C@@H](CCCCN)C(=O)N[C@@H](CCCCNC(C)=S)C(=O)N1)C(N)=O
